Like-named read-outs stand apart in the source and are kept apart here.
Experiments:
[1] = target: T1, STIM2+CRACM1-expressing HEK293 cells (Homo sapiens, UniProt Q9P246); experiment: Whole-cell patch-clamp of CRAC currents in STIM2+CRACM1 cells; assay type: cell-based; conditions: for suppression of the secondary phase of CRAC current: added to pipette solution: ATP 3 mM, GTP 0.3 mM, calmodulin 100 μM, [Ca2+]i 150 nM
T1 construct: expressed in transfected cells; host or cells: HEK293
Protocol: Patch-clamp experiments were performed in the tight-seal whole-cell configuration at 21-25° C. High-resolution current recordings were acquired using the EPC-9 (HEKA). Voltage ramps of 50 ms duration spanning a range of −100 to +100 mV were delivered from a holding potential of 0 mV at a rate of 0.5 Hz over a period of 100-700 sec. All voltages were corrected for a liquid junction potential of 10 mV (3 mV with Cl^− as main internal anion). Currents were filtered at 2.9 kHz and digitized at 100 μs intervals. Capacitive currents were determined and corrected before each voltage ramp. Extracting the current amplitude at −80 mV from individual ramp current records assessed the low-resolution temporal development of currents. Where applicable, statistical errors of averaged data are given as means±S.E.M. with n determinations. Standard external solutions were as follows (in mM): 120 NaCl, 10 CsCl, 2.8 KCl, 2 MgCl2, 10 CaCl2, 10 TEA-Cl, 10 HEPES, 10 glucose, pH 7.2 with NaOH, 300 mOsm. In some experiments, 2 μM or 50 μM 2-aminoethyldiphenyl borate (2-APB) or 10 μM G418 were added to the standard external solution and applied through wide-tipped puffer pipettes. Standard internal solutions were as follows (in mM): 120 Cs-glutamate, 8 NaCl, 10 Cs-BAPTA, 3 MgCl2, 10 HEPES, 0.02 IP3, pH 7.2 with CsOH, 300 mOsm. As indicated in the figure legends, for some experiments [Ca^2+]i was buffered to 150 nM by 20 mM Cs•BAPTA and 8 mM CaCl2 or 20 mM Cs•EGTA and 8.9 mM CaCl2. For passive-depletion experiments, the internal solution was supplemented with Cs•BAPTA in the absence of IP3 and Ca^2+. In some experiments, Cs-glutamate and Cs•BAPTA were equimolarly replaced by KCl and K•BAPTA. In others, G418, Na•ATP and Na•GTP or calmodulin were added to intracellular solutions as specified in the figure legends. All chemicals were purchased from Sigma-Aldrich Co.

[2] = target: T2, STIM1+CRACM1-expressing HEK293 cells (Homo sapiens, UniProt Q13586+Q96D31); experiment: Whole-cell patch-clamp of CRAC currents in STIM1+CRACM1 cells; assay type: cell-based; conditions: 50 μM 2-APB; no IP3, [Ca2+]i buffered to 150 nM
T2 construct: expressed in transfected cells; host or cells: HEK293
Protocol: Patch-clamp experiments were performed in the tight-seal whole-cell configuration at 21-25° C. High-resolution current recordings were acquired using the EPC-9 (HEKA). […] Currents were filtered at 2.9 kHz and digitized at 100 μs intervals. Capacitive currents were determined and corrected before each voltage ramp. Extracting the current amplitude at −80 mV from individual ramp current records assessed the low-resolution temporal development of currents. […] All chemicals were purchased from Sigma-Aldrich Co.

CRAC currents = conditions: cited from earlier work; for doses that inhibit CRAC currents: high doses

T1 sequence (Q9P246 15-746): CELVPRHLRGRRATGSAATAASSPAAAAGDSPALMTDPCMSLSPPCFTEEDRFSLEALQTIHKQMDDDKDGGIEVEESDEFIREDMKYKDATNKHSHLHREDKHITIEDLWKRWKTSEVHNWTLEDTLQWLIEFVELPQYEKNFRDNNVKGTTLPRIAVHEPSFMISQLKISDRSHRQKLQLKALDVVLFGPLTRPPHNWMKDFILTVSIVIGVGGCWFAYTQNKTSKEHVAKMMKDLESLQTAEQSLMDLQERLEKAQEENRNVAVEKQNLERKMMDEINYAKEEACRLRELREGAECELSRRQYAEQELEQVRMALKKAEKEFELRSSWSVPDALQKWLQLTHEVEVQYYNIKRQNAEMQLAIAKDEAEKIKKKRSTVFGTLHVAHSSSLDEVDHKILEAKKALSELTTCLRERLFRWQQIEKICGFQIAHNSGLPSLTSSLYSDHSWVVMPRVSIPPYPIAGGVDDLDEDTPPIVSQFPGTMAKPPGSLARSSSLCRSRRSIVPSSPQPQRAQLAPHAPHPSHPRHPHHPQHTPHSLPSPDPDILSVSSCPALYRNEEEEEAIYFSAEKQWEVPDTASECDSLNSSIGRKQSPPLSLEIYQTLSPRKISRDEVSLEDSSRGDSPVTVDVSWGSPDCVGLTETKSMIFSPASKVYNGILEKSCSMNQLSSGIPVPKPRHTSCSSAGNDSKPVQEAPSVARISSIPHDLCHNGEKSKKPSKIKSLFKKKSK
T2 sequence (Q13586 23-685): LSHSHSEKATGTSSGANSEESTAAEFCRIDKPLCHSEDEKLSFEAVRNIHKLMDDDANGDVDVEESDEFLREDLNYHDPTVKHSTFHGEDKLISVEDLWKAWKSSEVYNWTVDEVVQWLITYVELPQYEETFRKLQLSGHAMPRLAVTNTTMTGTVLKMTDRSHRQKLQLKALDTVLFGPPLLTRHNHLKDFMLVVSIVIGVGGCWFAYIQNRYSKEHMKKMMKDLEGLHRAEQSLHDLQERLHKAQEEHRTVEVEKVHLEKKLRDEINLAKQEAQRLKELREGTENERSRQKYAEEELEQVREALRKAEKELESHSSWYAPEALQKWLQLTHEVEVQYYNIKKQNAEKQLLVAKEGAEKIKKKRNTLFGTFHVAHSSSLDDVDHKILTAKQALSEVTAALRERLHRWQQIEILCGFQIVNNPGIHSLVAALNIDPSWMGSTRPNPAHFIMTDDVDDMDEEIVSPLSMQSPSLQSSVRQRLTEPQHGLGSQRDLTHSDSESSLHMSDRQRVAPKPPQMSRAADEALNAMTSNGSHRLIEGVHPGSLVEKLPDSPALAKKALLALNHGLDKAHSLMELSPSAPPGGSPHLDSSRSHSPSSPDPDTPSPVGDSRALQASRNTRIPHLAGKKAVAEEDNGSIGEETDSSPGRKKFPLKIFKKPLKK
T2 sequence (Q96D31 whole entry): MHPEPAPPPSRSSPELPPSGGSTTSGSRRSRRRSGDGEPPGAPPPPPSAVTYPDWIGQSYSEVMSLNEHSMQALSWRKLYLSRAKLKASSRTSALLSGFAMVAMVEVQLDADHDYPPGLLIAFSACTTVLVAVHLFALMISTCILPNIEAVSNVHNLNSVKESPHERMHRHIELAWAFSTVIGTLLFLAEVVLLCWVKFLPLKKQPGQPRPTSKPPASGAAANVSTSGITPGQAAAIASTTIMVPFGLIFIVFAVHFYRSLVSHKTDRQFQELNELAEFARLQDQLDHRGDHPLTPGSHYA

NCCOB(c1ccccc1)c1ccccc1 [2-APB, 2-aminoethoxydiphenyl borate]
CRAC currents activated by 2-APB ([1]; 50 μM 2-APB, stores depleted by IP3 or kept full ([Ca2+]i 150 nM), cells grown without G418): large, transient CRAC currents | CRACM1 currents induced by external application of 2-APB ([1]; 2 mM 2-APB as printed, cells grown in G418, no IP3-induced current): large CRACM1 currents | activation time of 2-APB-induced current ([1]; high-resolution recording at fixed membrane potential): within a few seconds | effect of 2-APB on G418-mediated suppression of CRAC currents ([1]; regardless of the filling state of stores): capable of overcoming the G418-mediated suppression | 2-APB-induced current without store depletion [2]: not observed | doses that inhibit CRAC currents (CRAC currents; unit as printed in b55): ≥ 10 mM | doses that inhibit CRAC currents (CRAC currents): ≥ 0.01 mM | doses with facilitatory effects on CRAC currents (CRAC currents; low doses): ≤ 5 µM

Nc1ncnc2c1ncn2[C@@H]1O[C@H](COP(=O)(O)OP(=O)(O)OP(=O)(O)O)[C@@H](O)[C@H]1O [ATP]
suppression of the secondary phase of CRAC current [1]: failed to suppress

CN[C@@H]1[C@@H](O)[C@@H](O[C@@H]2[C@@H](O)[C@H](O[C@H]3O[C@H]([C@@H](C)O)[C@@H](O)[C@H](O)[C@H]3N)[C@@H](N)C[C@H]2N)OC[C@]1(C)O [G418]
IC50 [1]: 520 nM | IC50 ([1]; half-maximal inhibitory concentration for IP3-induced CRACM1 currents, cells perfused with G418, both phases of the current): 500 nM

Nc1nc2c(ncn2[C@@H]2O[C@H](COP(=O)(O)OP(=O)(O)OP(=O)(O)O)[C@@H](O)[C@H]2O)c(=O)[nH]1 [GTP]
suppression of the secondary phase of CRAC current [1]: failed to suppress

calmodulin
suppression of the secondary phase of CRAC current [1]: secondary phase was observed
